Reference: patent publication US20220088042A1, “COMBINATION THERAPY INCLUDING SAPC-DOPS FOR THE TREATMENT OF PANCREATIC CANCER” (priority 2016, published 2022)

Tests used:
MIA-PaCa-2 cells = assay: Surface PS (annexin V-APC) and TUNEL apoptosis stain, MIA-PaCa-2 (FIG. 3B); format: cell-based, human
Description: (§1) FIG. 3. GEM exposure triggers PS externalization in pancreatic tumor cells. AsPC-1 (A) and Mia-PaCa-2 (B) cells were treated with varying doses of GEM for 24 h, TUNEL apoptosis stain was performed after surface PS staining with annexin V-APC. The overlay histograms show TUNEL-negative (non-apoptotic) cells. TUNEL positive [AsPC-1: CTL=0.3; GEM 10 nM=2.5; GEM 100 nM=4.6]; [MIA-PaCa-2: CTL=3.6; GEM 1 μM=21].
(§2) Importantly, in low surface PS cells a clear increase was evident using sub-toxic concentrations of GEM that caused <10% apoptosis.
(§3) Various cell types were analyzed for surface PS exposure by flow cytometry with annexin V-FTIC. Involvement of flippases in the regulation of surface PS exposure was analyzed by flippase activity assay. Total cellular PS was quantified by TLC separation of phospholipids and estimation of PS phosphorous. Orthotopic PDAC tumors were established by injecting human or murine PDAC cells into animal pancreas. In vivo bioluminescence and fluorescence imaging were performed to monitor tumor targeting and growth. The molecular mechanisms underlying the induction of apoptosis by SapC-DOPS were evaluated in cultured PDAC cells through measurements of cell viability, TUNEL, and flow cytometric DNA fragmentation.

AsPC-1 cells = assay: Surface PS (annexin V-APC) and TUNEL apoptosis stain, AsPC-1 (FIG. 3A); format: cell-based, human; conditions: for TUNEL positive: 24 h (CTL=0.3)
Description: as §1, §2, §3

PDAC cells = assay: Surface PS exposure by flow cytometry with annexin V; format: cell-based; conditions: chemotherapy treatment of PDAC cells
Description: as §3

[1] = test system: MIA PaCa-2 human pancreas tumor xenograft; assay: MIA PaCa-2 human pancreas tumor xenograft model (Example 3); format: in vivo; conditions: for Day 35 TW (mg) ± SEM: Day 35 mean tumor weight, Q3Dx4
Description: SapC-DOPS was received from Bexion Pharmaceuticals, Inc. and were stored at […] until use. Separate aliquoted vials of SapC-DOPS for the 7.3 mg/kg dose were received. Separate aliquoted vials of vehicle were received, which contained DOPS and no SapC. Each vial was resuspended in 1.2 ml of sterile water for injection (Lot #JPJ551, 13/Braun Medical, Inc., Irvine Calif.). Once formulated, SapC-DOPS was delivered at a 10 ml/kg dose volume. SapC-DOPS and vehicle were formulated fresh daily and administered immediately after preparation.
Gemcitabine (Lot #A735891A) was manufactured by Eli Lilly and Co. (Indianapolis, Ind.) and diluted in a 0.9% NaCl solution (B. Braun Medical, Inc., Irvine, Calif., Lot #J0K465) to a concentration of 4 mg/ml to deliver a 40 mg/kg dose at a 10 ml/kg dose volume. All preparations were made fresh prior to their administration.
The MIA Paca-2 human pancreas tumor cell line was received from American Type Culture Collection (ATCC, Manassas, Va.). Cultures were maintained in RPMI-1640 (Hyclone, Logan, Utah) supplemented with 5% fetal bovine serum, and housed in a 5% CO2 atmosphere. The cultures were expanded in tissue culture flasks at a 1:4 split ratio until a sufficient amount of cells were harvested.
Female NCR nude mice (CrTac:NCR-Foxn1^nu) were supplied by Taconic (Germantown, N.Y.). Mice were received at four weeks' of age, 12-15 g in weight. All mice were acclimated for seven days prior to handling. The mice were housed in microisolator cages (Lab Products, Seaford, Del.) and maintained under specific pathogen-free conditions. The mice were fed PicoLab® irradiated mouse chow (Lab Diet, Richmond, Ind.) and autoclaved water was freely available. […]
Five days following inoculation, tumors were measured using calipers and tumor weight was calculated using the animal study management software, Study Director V. 1.7.54 k (Study Log)^1, Thirty mice with tumor sizes of 105-158 mg were pair-matched into three groups of ten mice each (Day 1). Body weights were recorded when the mice were pair-matched and were taken twice weekly thereafter in conjunction with tumor measurements. […]
On Day 35, tumors were collected from two randomly selected mice per group. […] The lungs were fixed in formalin (Lot #4117, Azer Scientific, Morgantown, Pa.) and sent to the Mayo Clinic Histology (Scottsdale, Ariz.) to be paraffin blocked process through H&E. The lungs were analyzed by a pathologist at Mayo Clinic with emphasis on evidence of granuloma on the lungs.
Mean tumor growth inhibition (TGI) was calculated utilizing the following formula (any tumors that regressed were not used in calculations): […]
The mean tumor shrinkage of each group was calculated and reported. […]

In the case of Nc1ccn([C@@H]2O[C@H](CO)[C@@H](O)C2(F)F)c(=O)n1 [Gemcitabine], the “external PS in viable cells” value (MIA-PaCa-2 cells; 24 h, varying doses, moderate surface PS cell line) is reported as “dose-dependent increase”, the TUNEL positive (MIA-PaCa-2 cells; GEM 1 μM, 24 h (CTL=3.6)) is reported as 21 and the “external PS in viable cells” value (AsPC-1 cells; 24 h, varying doses, relatively low surface PS cell line) is reported as “dose-dependent increase”. For the same molecule, the TUNEL positive (AsPC-1 cells; GEM 10 nM) was 2.5, the TUNEL positive (AsPC-1 cells; GEM 100 nM) was 4.6 and the apoptosis (AsPC-1 cells; sub-toxic concentrations of GEM giving a clear PS increase in low surface PS cells) was less than 10%. For the same molecule, the “surface PS levels” value (PDAC cells) was “increase surface PS levels”, the “Total Deaths” value ([1]; 10 mice per group, study to Day 35) was 0 and the “Day 35 TW (mg) ± SEM” value [1] was 936.0 ± 135.1 mg. For the same molecule, the “Day 35 TW (mg) ± SEM” value ([1]; listed as gemcitabine) was 936.0 mg and the tolerability ([1]; mouse, in vivo) was “well tolerated”.
